Measurements as given in publication PMC8762250, “Identification of Novel Chemical Scaffolds that Inhibit the Growth of Mycobacterium tuberculosis in Macrophages” (Frontiers in Pharmacology, 2022).
Like-named read-outs stand apart in the source and are kept apart here. Marks after values point to notes of the source that are not given here.

How the values were obtained:
RAW264.7 cells = test: Macrophage viability in the same high content assay; settings: for Intracellular activity Cytotoxicity TC50 / Intracellular RAW TC50: infected RAW264.7 macrophages; for Intracellular activity Cytotoxicity TC50: 72 h; for Intracellular RAW TC50: SAR tables 4-8; for selectivity index (TC50/IC50): macrophage TC50 / intracellular IC50; for selectivity index (SI): HepG2 cells and/or macrophages, cell line not specified
M. tuberculosis [1] = test: Minimum inhibitory concentration in liquid medium (axenic culture); type: cell-based, Mycobacterium tuberculosis; settings: for IC50: read-out: Anti-tubercular activity in axenic culture IC50
HepG2 cells = test: HepG2 cytotoxicity (CellTiter-Glo, 72 h); type: cell-based, human; settings: for HepG2 cytotoxicity TC50 Galactose / HepG2 cytotoxicity TC50 Glucose: human, 72 h; for selectivity (SI) for HepG2: HepG2 cytotoxicity / intracellular IC50
Procedure: (§1) Cytotoxicity against HepG2 cells was measured after 72 h. Cells were seeded in 384-well plates at 1,800 cells per well. Compounds were added as a 10-point three-fold serial dilution after 24 h (final assay concentration of 1% DMSO). CellTiter-Glo® reagent (Promega) was added and relative luminescence units (RLU) measured. Data were normalized to the DMSO controls. Curves were fitted using the Levenberg–Marquardt algorithm; TC50 was calculated as the compound concentration required to reduce cell viability by 50%.
(§2) We further evaluated cytotoxicity using the HepG2 cell line cultured with either glucose or galactose in the medium (Table 2). HepG2 cells cultured with galactose rely on mitochondrial oxidative phosphorylation rather than glycolysis which increases their susceptibility to mitochondrial toxicants allowing us to identify compounds with mitochondrial toxicity ([Kamalian et al., 2015]).

[2] = HepG2 cytotoxicity (CellTiter-Glo, 72 h); type: cell-based, human; settings: human
Procedure: as §1, §2

M. tuberculosis [3] = test: High content assay of intracellular M. tuberculosis growth in infected RAW264.7 macrophages; type: cell-based, Mycobacterium tuberculosis H37Rv-LP
Procedure: Compounds were obtained in 384-well plates as 10 mM DMSO stock solutions and tested as described ([Manning et al., 2017]). Briefly, assay plates were prepared in clear bottom, black 384-well plates with 30 μl cRPMI and 0.6 μl compound in columns 3–22 (final concentration of 10 μM compound, 1% DMSO). […] INH and STA were also included in dose response on each plate. RAW264.7 cells were infected with M. tuberculosis DREAM8 as described ([Manning et al., 2017]) at an MOI of 1 for 24 h and extracellular bacteria removed by washing. Cells were recovered using Accumax, harvested, washed and resuspended in serum-free RPMI; 30 μl of infected cells were dispensed into each well at 3,300 cells/well. Plates were incubated for 72 h, 10 μl of 5X SYBR Green I was added and plates were imaged with an ImageXpress Micro High Content Screening System (Molecular Devices) using a ×4 objective and FITC and Texas Red channels. MetaXpress was used to analyze images. The integrated intensity of M. tuberculosis or macrophages was calculated for each well. Growth inhibition was calculated for each test well by normalizing to the average integrated intensity of the DMSO control wells. IC50 was calculated as the compound concentration required to reduce bacterial growth by 50%. TC50 was calculated as the compound concentration required to reduce macrophage viability by 50%.

[4] = Mycobacterium tuberculosis, 120 h, extracellular, 5 days, OD590
[5] = Mycobacterium tuberculosis, 120 h, extracellular, 5 days, OD590, read-out: Anti-tubercular activity in axenic culture IC90
[6] = Mycobacterium tuberculosis, axenic culture, SAR tables 4-8, read-out: Extracellular IC90
[7] = HepG2 cytotoxicity IC50 Galactose
[8] = HepG2 cytotoxicity IC50 Glucose
[9] = Mycobacterium tuberculosis, RAW264.7, 72 h, M. tuberculosis in RAW264.7 cells, MOI 1, 72 h, read-out: Intracellular activity Anti-tubercular activity IC50
[10] = Mycobacterium tuberculosis, RAW264.7, read-out: Intracellular Mtb IC50, in RAW264.7 macrophages, SAR tables 4-8
[11] = Mycobacterium tuberculosis, RAW264.7, in RAW264.7 macrophages, SAR tables 4-8, read-out: Intracellular Mtb IC50
[12] = in RAW264.7 macrophages, SAR tables 4-8, read-out: Intracellular Mtb IC50

Row | Compound | Intracellular activity Cytotoxicity TC50 (RAW264.7 cells) | Intracellular RAW TC50 (RAW264.7 cells) | selectivity index (TC50/IC50) (RAW264.7 cells) | IC50 (M. tuberculosis [1]; [4]) | IC90 (M. tuberculosis [1]; [5]) | IC90 (M. tuberculosis [1]; [6]) | HepG2 cytotoxicity TC50 Galactose (HepG2 cells) | HepG2 cytotoxicity TC50 Glucose (HepG2 cells) | IC50 at 72 h [2, 7] | IC50 at 72 h [2, 8] | IC50 (M. tuberculosis [3]; [9]) | IC50 (M. tuberculosis [3]; [10]) | IC50 (M. tuberculosis [3]; [11]) | IC50 (M. tuberculosis [3]; [12]) | selectivity index (SI) (RAW264.7 cells) | selectivity (SI) for HepG2 (HepG2 cells) | IC50 (M. tuberculosis [3]; in RAW264.7 macrophages, SAR tables 4-8, listed as 26, read-out: Intracellular Mtb IC50) | IC50 (M. tuberculosis [1]; extracellular, 5 days, OD590) | activity against intracellular M. tuberculosis (M. tuberculosis [3]) | Intracellular RAW TC50 (RAW264.7 cells; listed as 17)
1 | CCOc1ccc(NC(=S)Nc2ccccc2)cc1 [TPN-0073062] | >100 ^d µM | >100 ^d µM | > 250 | 11 ± 5.3 µM | > 20 µM | > 20 µM | >100 ^e µM | >100 ^e µM | > 100 µM | > 100 µM | 0.39 ± 0.13 µM | 0.4 ± 0.1 µM | – | – | – | – | – | – | – | –
2 | Cc1cc(C)nc(NC(=N)Nc2ccc(Br)cc2)n1 [TPN-0073061] | 18 ± 4.3 ^d µM | 18 ± 4.3 ^d µM | 14 | 6.3 ± 0.15 µM | 8.2 ± 0.1 µM | 8.2 ± 0.1 µM | 22 ± 3.1 ^c µM | 22 ± 4.0 ^c µM | 22 ± 3.1 µM | 212 ± 4 µM | 1.3 ± 0.15 µM | 1.3 ± 0.1 µM | – | – | – | – | – | – | – | –
3 | OCc1cn(-c2ccccc2)nc1-c1ccc(Br)cc1 [TPN-0073563] | 28 ± 7.0 ^e µM | 28 ± 7.0 ^e µM | – | – | – | – | 34 ± 1.9 ^c µM | 34 ± 0 ^c µM | 35 ± 3.7 µM | 34 µM | 4.7 ± 1.1 µM | – | 4.3 ± 1.5 µM | – | – | – | – | – | – | –
4 | Nc1c(C(=O)N2CCCC2)sc2nc(-c3ccccc3)ccc12 [TPN-0073027] | >100e µM | >100 ^g µM | – | > 20 µM | > 20 µM | > 20 µM | 64 ± 10 ^e µM | 82 ± 25 ^d µM | 64 ± 12 µM | 72 ± 22 µM | 5.8 ± 2.1 µM | – | < 10 µM | 6.8 ± 3.3 µM | – | – | – | – | – | –
5 | COC(=O)c1c(NC(NC(=O)c2cccs2)C(=O)c2ccccc2)sc(C(C)=O)c1C (stereo not shown) [TPN-0073588] | 67 ± 8.5 ^b µM | 67 ± 8.5 ^b µM | – | > 20 µM | > 20 µM | > 20 µM | >100 ^c µM | >100 ^b µM | > 100 µM | 93 ± 5.5 µM | 6.5 ± 1.7 µM | – | 6.5 ± 1.7 µM | – | > 10 | 15 | – | – | – | –
6 | CCCOc1ccc(C(=O)Nc2sc(C)c(C)c2C(N)=O)cc1 [TPN-0073576] | >100 ^d µM | >100 ^d µM | – | > 20 µM | > 20 µM | > 20 µM | 92 ± 7 ^c µM | 83 ± 2.9 ^c µM | 89 ± 5.5 µM | 83 ± 2.9 µM | 1.1 ± 0.36 µM | – | – | 1 ± 0.4 µM | > 10 | > 80 | < 5 µM | – | – | –
7 | OCc1cn(-c2ccc(F)cc2)nc1-c1cc(F)c(Cl)cc1Cl [TPN-0073565] | >100 ^d µM | >100 ^d µM | – | 18.5 µM | > 20 µM | > 20 µM | 43 ± 2.1 ^d µM | 46 ± 2.8 ^e µM | 43 ± 2.3 µM | 46 ± 2.8 µM | 7 ± 1.8 µM | – | 7 ± 1.8 µM | – | – | – | – | > 20 µM | – | –
8 | CC(C)c1ccc(OCC(=O)Nc2nccs2)cc1 [TPN-0006217] | 75 ± 16 ^d µM | – | – | > 20 µM | > 20 µM | > 20 µM | 64 ± 1.5 ^b µM | 91 ± 3 ^b µM | 64 ± 1.5 µM | 91 ± 3 µM | 4.9 ± 2.1 µM | – | – | – | – | – | – | – | – | –
9 | O=C(CSc1ccccn1)Nc1ccc(F)c(F)c1 [TPN-0006203] | – | >100 ^b µM | – | – | – | > 20 µM | – | – | > 100 µM | > 100 µM | – | – | 7.8 ± 1.6 µM | – | – | – | – | – | good intracellular activity | –
10 | Nc1c(C(=O)N2CCCCC2)sc2nc3c(cc12)CCCC3 [TPN-0073024] | – | >100 ^b µM | – | – | – | > 20 µM | – | – | > 100 µM | > 100 µM | – | – | 62 ± 31 µM | – | – | – | – | – | – | –
11 | Cc1cc(OCC(=O)N2CCC(C)CC2)ccc1Br [TPN-0006213] | – | 75 ± 16 ^b µM | – | – | – | > 20 µM | – | – | 55 ± 5 µM | 93 ± 3.5 µM | – | – | 6.6 ± 1.6 µM | – | – | – | – | – | – | –
12 | OCc1cn(-c2ccc(Cl)cc2)nc1-c1ccc(Cl)cc1 [TPN-0073562] | 16 ± 11 ^c µM | 16 ± 11 ^c µM | – | 12 ± 0.5 µM | 19 ± 1.5 µM | 19 ± 1.5 µM | 31 ± 1.9 ^e µM | 31 ± 2.1 ^c µM | 31 ± 2.2 µM | 31 ± 2.1 µM | 2.9 ± 0.52 µM | – | 2.9 ± 0.5 µM | – | – | – | – | – | – | –
13 | OCc1cn(-c2ccc(F)cc2)nc1-c1ccc(Cl)cc1 [TPN-0073583] | – | >100 ^d µM | – | – | – | > 20 µM | – | – | 57 ± 28 µM | 66 ± 29 µM | – | – | 5.8 ± 0.4 µM | – | – | – | – | – | – | –
14 | COCc1cc(C)nc2sc(C(=O)c3ccccc3)c(N)c12 [TPN-0073023] | – | 67 ± 18 ^d µM | – | – | – | > 20 µM | – | – | 49 µM | 68 ± 1 µM | – | – | 17 ± 6.5 µM | – | – | – | – | – | – | –
15 | O=C(COc1ccc(Br)cc1)N1CCN(c2ccccc2F)CC1 [TPN-0006215] | – | 60 ± 27 ^b µM | – | – | – | > 20 µM | – | – | 57 ± 3 µM | 96 ± 2.5 µM | – | – | 12 ± 1.6 µM | – | – | – | – | – | – | –
16 | CCN(CC)C(=O)c1sc2nc(-c3ccccc3)ccc2c1N [TPN-0073025] | – | 30 ± 6.6 ^f µM | – | – | – | > 20 µM | – | – | 42 µM | 61 ± 48 µM | – | – | < 10 µM | 9 ± 6.6 µM | – | – | – | – | weak activity | –
17 | Nc1c(C(=O)c2ccc(F)cc2)sc2nc(-c3ccccc3)cc(-c3ccccc3)c12 [TPN-0073026] | – | >100 ^a µM | – | – | – | > 20 µM | – | – | > 100 µM | > 100 µM | – | – | > 100 µM | – | – | – | – | – | not active | –
18 | O=C(COc1ccc2ccccc2c1)Nc1ccncc1 [TPN-0006212] | – | >100 ^b µM | – | – | – | > 20 µM | – | – | 61 ± 4 µM | > 100 µM | – | – | 8.2 ± 1.7 µM | – | – | – | – | – | – | –
19 | COCc1cc(C)nc2sc(C(=O)Nc3cccc(Cl)c3)c(N)c12 [TPN-0073022] | – | 15 ± 9 ^b µM | – | – | – | > 20 µM | – | – | 64 µM | 51 µM | – | – | > 100 µM | – | – | – | – | – | not active | –
20 | Nc1c(C(=O)Nc2nccs2)sc2nc3c(cc12)CCC3 [TPN-0073030] | – | >100 ^c µM | – | – | – | > 20 µM | – | – | > 100 µM | > 100 µM | – | 1.1 µM | – | – | – | – | – | – | – | –
21 | O=C(COc1ccc(Cl)cc1)Nc1ccc(N2CCCCC2)c(Cl)c1 [TPN-0006209] | 68 ± 0.50 ^b µM | 68 ± 0.5 ^b µM | – | > 20 µM | > 20 µM | > 20 µM | >100 ^b µM | >100 ^b µM | > 100 µM | > 100 µM | – | – | – | – | – | – | – | – | – | –
22 | O=C(Nc1ccc(C(F)(F)F)cc1)Nc1cccc(Cl)c1 [TPN-0073070] | – | 1.8 ± 0.5 ^b µM | – | – | – | 15 µM | – | – | 5.5 µM | 5.6 µM | – | – | 0.7 ± 0.2 µM | – | – | – | – | – | – | 1.8 µM
